Reference: the Deep4Chem optical property database
Values belong to the compound of their own block, whether it stands above or below them.

Assay: photoluminescence quantum yield (fraction); solvent given as SMILES

Compound: Cc1ccc2[nH]c(-c3ccc(-c4ccc(-c5ccc(-c6nc7cc(C)ccc7[nH]6)cc5)cc4)cc3)nc2c1
photoluminescence quantum yield (in CN(C)C=O): 0.94

Compound: c1cc2c3c(c1)ccc1[n+]3[B-]3(Oc4cccc5ccc6[n+](c45)[B-](O2)(O3)n2c-6cc3c4ccccc4c4ccccc4c32)n2c-1cc1c3ccccc3c3ccccc3c12
photoluminescence quantum yield (in ClCCl): 0.89

Compound: COC(=O)c1ccc2c3ccc(C(=O)OC)c4c(C(=O)OC)ccc(c5ccc(C(=O)OC)c1c25)c43
photoluminescence quantum yield (in C1COCCO1): 0.99
photoluminescence quantum yield (in CC#N): 0.97
photoluminescence quantum yield (in CC(C)=O): 0.99
photoluminescence quantum yield (in CC(C)O): 0.96
photoluminescence quantum yield (in CCCCO): 0.96
photoluminescence quantum yield (in CN(C)C=O): 0.95
photoluminescence quantum yield (in CO): 0.99
photoluminescence quantum yield (in ClC(Cl)Cl): 0.83

Compound: COC(=O)c1nc2c(N(C)C)nc(N)nc2n1Cc1ccccc1
photoluminescence quantum yield (in C1COCCO1): 0.95
photoluminescence quantum yield (in CC#N): 0.83
photoluminescence quantum yield (in CO): 0.39
photoluminescence quantum yield (in ClCCl): 0.95

Compound: Cc1cc(C)c(B(c2cc3c4c(c(B(c5c(C)cc(C)cc5C)c5c(C)cc(C)cc5C)cc5c4c2CCC5)CCC3)c2c(C)cc(C)cc2C)c(C)c1
photoluminescence quantum yield (in CCCCCC): 0.9

Compound: COc1ccc(-c2ccc(-c3ccc(F)cc3)cc2)cc1
photoluminescence quantum yield (in C1COCCO1): 0.57

Compound: Cn1c(/C=C/c2ccc(/C=C/c3nc4ccccc4[nH]3)cc2)[n+](C)c2ccccc21
photoluminescence quantum yield (in C1CCOC1): 0.157
photoluminescence quantum yield (in CC#N): 0.109
photoluminescence quantum yield (in CC(C)=O): 0.103
photoluminescence quantum yield (in CN(C)C=O): 0.12
photoluminescence quantum yield (in CO): 0.067
photoluminescence quantum yield (in CS(C)=O): 0.114
photoluminescence quantum yield (in O): 0.044

Compound: c1ccc(-n2c(-c3cccc4ccccc34)nc3c4cccc5ccc6cccc(c6c54)c32)cc1
photoluminescence quantum yield (in Cc1ccccc1): 1

Compound: COc1ccc(-c2cnc(C#Cc3ccccc3)o2)cc1OC
photoluminescence quantum yield (in ClCCl): 0.49

Compound: COc1cc2c(cc1C=C(C#N)C#N)c1ccccc1n2C
photoluminescence quantum yield (in C1CCOC1): 0.002
photoluminescence quantum yield (in CC#N): 0.003
photoluminescence quantum yield (in CCOC(C)=O): 0.004
photoluminescence quantum yield (in CN(C)C=O): 0.005
photoluminescence quantum yield (in CO): 0.003
photoluminescence quantum yield (in CS(C)=O): 0.006
photoluminescence quantum yield (in Cc1ccccc1): 0.003
photoluminescence quantum yield (in ClC(Cl)Cl): 0.004
photoluminescence quantum yield (in ClCCl): 0.004

Compound: Cc1cc2c(ccc3c(C)[n+](C)c(C)cc32)c(C)[n+]1C
photoluminescence quantum yield (in CC#N): 0.29

Compound: COc1cc2oc(=O)c3c4ccc(C(=O)c5ccccc5)cc4c4ccc5cccc6c(c1)c2c3c4c56
photoluminescence quantum yield (in C1CCOC1): 0.448

Compound: CCCCC1=Cc2c3ccc4cccc5ccc(c6cc(-c7ccccc7)n(c26)P1(=O)c1ccccc1)c3c45 (centres undefined)
photoluminescence quantum yield (in C1CCCCC1): 0.64
photoluminescence quantum yield (in C1CCOC1): 0.51
photoluminescence quantum yield (in C1COCCO1): 0.55
photoluminescence quantum yield (in CC#N): 0.54
photoluminescence quantum yield (in CC(C)=O): 0.56
photoluminescence quantum yield (in CO): 0.51
photoluminescence quantum yield (in Cc1ccccc1): 0.6
photoluminescence quantum yield (in ClC(Cl)Cl): 0.56
photoluminescence quantum yield (in ClCCl): 0.57

Compound: CCCCc1cc(-c2cccc(COC)c2)oc1-c1cccc(COC)c1
photoluminescence quantum yield (in ClC(Cl)Cl): 0.87

Compound: COC(=O)[C@H](Cc1ccccc1)Nc1c(C(C)=O)c(=O)oc2cc(N(C)C)ccc12
photoluminescence quantum yield (in ClCCl): 0.0043

Compound: C/C=C/c1cccc(OC)c1
photoluminescence quantum yield (in CC#N): 0.24
photoluminescence quantum yield (in CCCCCC): 0.31

Compound: CSc1sc(C(=O)c2ccccc2)c2nn[nH]c(=O)c12
photoluminescence quantum yield (in C1CCOC1): 0.016
photoluminescence quantum yield (in CC#N): 0.013
photoluminescence quantum yield (in CCO): 0.0088
photoluminescence quantum yield (in CN(C)C=O): 0.0057
photoluminescence quantum yield (in CO): 0.0069
photoluminescence quantum yield (in CS(C)=O): 0.0056

Compound: COc1ccc(C2=C(c3ccc(-c4ccccc4)cc3)C(c3ccccc3)=[N+]3C2=Nc2c(-c4ccc(OC)cc4)c(-c4ccc(-c5ccccc5)cc4)c(-c4ccccc4)n2[B-]3(F)F)cc1
photoluminescence quantum yield (in Cc1ccccc1): 0.01

Compound: C(#Cc1cccs1)c1ncc(-c2ccccc2)o1
photoluminescence quantum yield (in ClCCl): 0

Compound: Cc1cc(C)c(B(c2cc(C#Cc3ccccc3)sc2-c2sc(C#Cc3ccccc3)cc2P(=O)(c2ccccc2)c2ccccc2)c2c(C)cc(C)cc2C)c(C)c1
photoluminescence quantum yield (in CO): 0.61

Compound: C=CC12N=N[C@](C=C)(C3C4CCC(C4)C31)C1[C@@H]3CC[C@@H](C3)[C@H]12 (some centres undefined)
photoluminescence quantum yield (in CC#N): 0.16

Compound: CCCCC(CC)COc1cc(OCC(CC)CCCC)c2c#cc3ccc4c(c3)c3cc(c#cc5cc(c#cc6ccc7c(c6)c6cc(c#cc1c2)ccc6n7CC(CC)CCCC)c(C(CCCC)OCCC)cc5C(CCCC)OCCC)ccc3n4CC(CC)CCCC (centres undefined)
photoluminescence quantum yield (in ClCCl): 0.32

Compound: CC[n+]1nc2cc3c(cc2c2cc(C)ccc21)N(C)CCC3
photoluminescence quantum yield (in O): 0.54

Compound: C1=Cc2ccccc2C(=Cc2ccc(C=C3c4ccccc4C=Cc4ccccc43)cc2)c2ccccc21
photoluminescence quantum yield (in C1CCOC1): 5e-05

Compound: Cc1cc(C)c(B(c2cc(-c3ccc(N(C)C)cc3)sc2-c2sc(-c3ccc(N(C)C)cc3)cc2P(=O)(c2ccccc2)c2ccccc2)c2c(C)cc(C)cc2C)c(C)c1
photoluminescence quantum yield (in CO): 0.18

Compound: CCN(CC)c1ccc(/C=C/c2cc(/C=C/c3ccc(N(CC)CC)cc3)nc(N)n2)cc1
photoluminescence quantum yield (in Cc1ccccc1): 0.72
photoluminescence quantum yield (in ClC(Cl)Cl): 0.61

Compound: c1ccc(C2=Nc3cccc4[n+]3[B-](c3ccccc3)(N2)NC(c2ccccc2)=N4)cc1
photoluminescence quantum yield (in ClCCl): 0.13

Compound: c1ccc2c(c1)oc1nc3oc4ccc(-n5c6ccccc6c6ccccc65)cc4c3cc12
photoluminescence quantum yield (in ClC(Cl)Cl): 0.074

Compound: CCCCC(CC)Cn1c2cc(-c3ccc(N(c4ccccc4)c4ccccc4)cc3)c(C#N)cc2c2cc(C#N)c(-c3ccc(N(c4ccccc4)c4ccccc4)cc3)cc21 (centres undefined)
photoluminescence quantum yield (in ClCCl): 0.8

Compound: O=[N+]([O-])c1ccc(C#Cc2ccc3ccc(C#Cc4ccc([N+](=O)[O-])cc4)cc3c2)cc1
photoluminescence quantum yield (in ClCCl): 0.007

Compound: O=C(c1ccc2c3c(cccc13)-c1cccc3c1C2CC=C3)c1c(CCc2ccccc2)c2ccc3cccc4c5cccc6ccc1c(c65)c2c34 (centres undefined)
photoluminescence quantum yield (in ClCCl): 0.17

Compound: O=C(c1ccc(/C(=C(/c2ccccc2)c2ccc(C(=O)c3ccc(-n4c5ccccc5c5ccccc54)cc3)cc2)c2ccccc2)cc1)c1ccc(-n2c3ccccc3c3ccccc32)cc1
photoluminescence quantum yield (in C1CCOC1): 0.268

Compound: CC(C)(C)OC(=O)COc1ccc2c(c1)oc(=O)c1c(=O)oc3ccccc3c12
photoluminescence quantum yield (in CS(C)=O): 0.31
photoluminescence quantum yield (in ClCCl): 0.008

Compound: Cc1ccccc1-c1nc(-c2ccccc2C)nc(-c2ccc(N3c4ccccc4C4(c5ccccc5-c5ccccc54)c4ccccc43)cc2C)n1
photoluminescence quantum yield (in O=P(c1ccccc1)(c1ccccc1)c1ccccc1Oc1ccccc1P(=O)(c1ccccc1)c1ccccc1): 0.62

Compound: c1ccc2cc3c4c(ccc3cc2c1)-c1cccc2cccc-4c12
photoluminescence quantum yield (in CCCCCCC): 0.023

Compound: CCOC(=O)CN1C(=O)C2=C(c3ccc(N4CCCCC4)cc3)N(CC(=O)OCC)C(=O)C2=C1c1ccc(C#N)cc1
photoluminescence quantum yield (in CC#N): 0.01
photoluminescence quantum yield (in CS(C)=O): 0.001
photoluminescence quantum yield (in Cc1ccccc1): 0.16

Compound: O=S(=O)(c1ccc(N(c2ccccc2)c2ccccc2)cc1)c1ccc(S(=O)(=O)c2ccc(N(c3ccccc3)c3ccccc3)cc2)cc1
photoluminescence quantum yield (in Cc1ccccc1): 0.64

Compound: CC1(C)c2ccccc2N(c2ccc(-c3cccc(C#N)c3)cc2)c2ccccc21
photoluminescence quantum yield (in Cc1ccccc1): 0.112
photoluminescence quantum yield (in N#Cc1ccc2c(c1)c1ccccc1n2-c1cccc(-n2c3ccccc3c3ccccc32)c1): 0.15

Compound: CC1(C)c2ccccc2N(c2ccccc2)c2ccc(-c3ccc(-c4ccc5c(c4)C(C)(C)c4ccccc4N5c4ccccc4)c4nsnc34)cc21
photoluminescence quantum yield (in c1ccc2c(c1)c1ccccc1n2-c1ccc(-c2ccc(-n3c4ccccc4c4ccccc43)cc2)cc1): 0.92

Compound: CC1(C)c2ccccc2N(c2ccc(-c3ccc4c(c3)c3cc(-c5ccc(N6c7ccccc7C(C)(C)c7ccccc76)cc5)ccc3c3nc(C#N)c(C#N)nc43)cc2)c2ccccc21
photoluminescence quantum yield (in Cc1ccccc1): 0.33
photoluminescence quantum yield (in O=P(c1ccccc1)(c1ccccc1)c1cccc(-c2cc(-n3c4ccccc4c4ccccc43)cc(-n3c4ccccc4c4ccccc43)c2)n1): 0.65

Compound: N#Cc1nn(-c2c(Cl)cccc2Cl)nc1N1CCCC1
photoluminescence quantum yield (in CC#N): 0.113

Other lines, results leading:

photoluminescence quantum yield (in CCO): 0.3
photoluminescence quantum yield (in ClCCl): 0.89
Compound: c1ccc(-c2c3ccc(=[N+]4CCCCC4)cc-3oc3cc(N4CCCCC4)ccc23)cc1

photoluminescence quantum yield (in C1CCOC1): 0.287
Compound: O=c1oc2cccc3c4cccc5ccc6c7ccccc7c1c(c23)c6c54

photoluminescence quantum yield (in ClCCl): 0.12
Compound: c1ccc2c(c1)ccc1c3ccccc3ccc21

photoluminescence quantum yield (in ClCCl): 0.45
Compound: COc1ccc(-c2c3cc4ccccc4cc3c(C#Cc3ccccc3)c3cc4cc(C)sc4cc23)cc1

photoluminescence quantum yield (in ClCCl): 0.43
Compound: COc1ccc2cc(-c3cc(-c4ccccc4)c4n3[B-](F)(F)[N+]3=C5C=NC=CN5[B-](F)(F)[N+]3=C4)ccc2c1

photoluminescence quantum yield (in C1CCOC1): 0.56
Compound: C(=C\c1cc2ccccc2c2ccccc12)/c1c2ccccc2cc2ccccc12

photoluminescence quantum yield (in C1CCCCC1): 0.62
photoluminescence quantum yield (in CCOC(C)=O): 0.12
Compound: CC1=[N+]2C(=C(c3cccs3)c3ccc(C)n3[B-]2(F)F)C=C1c1cc2n(c1)[B-](F)(F)[N+]1=CC=CC1=C2c1c(C)cc(C)cc1C

photoluminescence quantum yield (in C1CCCCC1): 0.48
photoluminescence quantum yield (in CCOC(C)=O): 0.46
photoluminescence quantum yield (in CO): 0.32
Compound: c1ccc2cc(-n3c4ccccc4c4ccccc43)ccc2c1

photoluminescence quantum yield (in ClCCl): 0.59
Compound: COc1ccc(-c2c3ccccc3c(-c3ccc(OC)cc3)c3ccccc23)cc1

photoluminescence quantum yield (in CC#N): 0.28
photoluminescence quantum yield (in CCCCCC): 0.46
Compound: C(=C\c1ccc2ccccc2c1)/c1ccc(Nc2ccccc2)cc1

photoluminescence quantum yield (in CO): 0.0644
Compound: C(=C\c1c[nH]c2ccc(Oc3ccccc3)cc12)/C1=[NH+]c2cccc3cccc1c23

photoluminescence quantum yield (in ClCCl): 0.0685
Compound: COc1ccc(C2=CC(c3ccccc3)=C(c3ccccc3)C2)c2ccccc12

photoluminescence quantum yield (in ClCCl): 0.3
Compound: CCN(CC)c1ccc2c(-c3ccccc3C(=O)O)c3c([o+]c2c1)/C(=C/c1nc(C)n2ccccc12)CCC3

photoluminescence quantum yield (in CCO): 0.37
photoluminescence quantum yield (in ClCCl): 0.13
photoluminescence quantum yield (in O): 0.42
Compound: CC[N+]1=C(/C=C/c2c(C)nn3c(-c4ccc(OC)cc4)ccnc23)C(C)(C)c2ccccc21

photoluminescence quantum yield (in CS(C)=O): 0.08
Compound: C[N+]1=C(/C=C/C=C2/N(CCCc3ccccc3)c3ccccc3C2(C)C)C(C)(C)c2ccccc21

photoluminescence quantum yield (in C1CCCCC1): 0.338
photoluminescence quantum yield (in CCOC(C)=O): 0.202
photoluminescence quantum yield (in CN(C)C=O): 0.015
photoluminescence quantum yield (in CO): 0.002
photoluminescence quantum yield (in ClCCl): 0.292
Compound: CCN(CC)c1ccc2c(c1)oc(=O)c1cc3c(-c4ccccc4)nn(C)c3nc12

photoluminescence quantum yield (in CO): 1
Compound: CC1=CC(/C=C/c2ccc(OCCCN=[N+]=[N-])cc2)=[N+]2C1=C(c1ccccc1)c1c(C)cc(C)n1[B-]2(F)F

photoluminescence quantum yield (in ClCCl): 0.144
Compound: Oc1ccccc1-c1nc(-c2ccccc2)c2ccccn12
